Results: patent US11318141B2, “Methods and compositions related to STK1-targeted small molecules as antibiotic resistance breakers” (Ohio State Innovation Foundation, priority 2017, dated 2022)
≈ marks a conversion by molar mass, not a printed value. Where “and” joins values, the source holds several entries; their conditions need not be identical. Equal values may be shown once. Read-outs that look alike come from different tables or passages of the source.

Tests used:
S. aureus MW2-WT [1] = test: microbe, parasite or virus in culture; type: cell-based, Staphylococcus aureus; settings: Staphylococcus aureus, MW2WT
[2] = test system: S. aureus MW2ΔSTK1 mutant; test: E-test antibiotic susceptibility (MIC), Muller-Hinton agar; type: cell-based; settings: Staphylococcus aureus
[3] = test system: S. aureus MW2ΔSTP1 mutant; test: as above; type: cell-based; settings: Staphylococcus aureus
S. aureus MW2 wild-type [4] = test: Checkerboard titration end-point bactericidal assay (MBC), Muller-Hinton agar; type: cell-based, Staphylococcus aureus; settings: for MBC: Staphylococcus aureus, MW2WILDTYPE
Description: FIGS. 15A-15B show checkerboard assays for determining bactericidal assay. Serial two-fold dilutions of 2 mM of Inh2-B1 (MW=411.58 g/mol) and (A) 3 mM ceftriaxone (MW=669.7 g/mol) were made in two separate 96-well plates in vertical (B1-B12 to H1-H2 wells) and horizontal (A2-H2 to A12-H12 wells) directions respectively. Serially diluted Inh2-B1 (100 μL) in the individual well was then mixed with the 100 μL serially diluted ceftriaxone present in the corresponding wells. The resulting various combinations of Inh2-B1 (starting from 1 mM) and ceftriaxone (starting from 1.5 mM) or cefotaxime (2.1 mM) as well as serially diluted one Inh2-B1 (B1 to H1) and ceftriaxone (A2-A12) or cefotaxime (A2-A12) were then incorporated in Muller-Hinton mini agar plates (2 mL). The agar plates were then seeded and diluted S. aureus MW2-wild-type culture equivalent to approximately 23±3 CFU. This checkerboard assay was used to determine the ideal combination of lowest concentration of Inh2-B1 and ceftriaxone that kills 99.9% of the wild-type MW2.
(§1) Since the STK1 is not essential for bacterial survival and its absence results in retardation of growth, an end-point bactericidal assay was done, employing the Checkerboard titration method followed by a time-to-kill assay using the broth dilution method. The 96-well plate-based checkerboard titration assays were performed using the fixed number of CFUs of MW2 strain, and the survival of the bacteria was measured on solid agar plates as an end-point result. […] The cut-off value to designate clinical isolates of S. aureus for antibiotics, including Ceftriaxone (TX) and Cefotaxime (CT) as susceptible, is less than 4 μg/ml (i.e., <4.8 μM of TX, and <7 μM of CT). […] CFU counts of MW2-WT grown in the presence of various concentrations of Inh2-B1 were examined over a period of 16 h. […] Similarly, it was also determined CFU counts of MW2-WT and MW2ΔSTK1 strains each grown in the absence or the presence of 50 μM of Inh2-B1 and 1.5 μM Ceftriaxone (1 μg/ml) or […] Cefotaxime (1 μg/ml) for 16 h employing the broth dilution method. […] Further, to address whether MW2 or STK1 could become refractory to a potential combined therapy, the S. aureus MW2 wild-type strain was grown in the presence of suboptimal dose of Inh2-B1 alone and combination with Ceftriaxone and Cefotaxime (25 μM Inh2-B1 and 3 μM of Ceftriaxone or 3 μM Cefotaxime) for consecutive 10 generations.
(§2) Subsequently, the susceptibility of S. aureus MW2 strain to Ceftriaxone, Cefotaxime, Inh2, and Inh2-B1 was confirmed by the CLSI recommended serial dilution method using Muller Hinton broth. Minimum bactericidal activity (MBC) was measured using Muller-Hinton agar. Changes in the MBC of Ceftriaxone/Cefotaxime in the presence of serially diluted Inh2-B1 was determined in two steps. Initial screening was carried out using the Checkerboard method using Muller-Hinton agar (FIG. 15). […] Subsequent time to kill assays were carried out using 50 μM Inh2-B1 and Ceftriaxone. Cefotaxime (1 μg/ml) in a final volume of 250 μl using a sterile 96-well (U-bottom) microtiter plate over a period of 16 h at 37° C. under constant rotation (120 rpm). Optical density and corresponding CFU counts were measured at every two-hour interval up to 8 hours with a final overnight reading at the end of incubation period. CFU counts were measured using appropriate dilution of 10 μl of properly mixed samples at each time interval.

S. aureus MW2-WT [5] = test: Time-to-kill assay (OD and CFU counts over 16 h), broth dilution; type: cell-based, Staphylococcus aureus; settings: only 50 μM Inh2-B1, only 1.5 μM Ceftriaxone (1 μg/ml) or only 3 μM Cefotaxime (1 μg/ml), 16 h
Description: (§3) FIGS. 4A-F show. […] Optical Density and corresponding Colony forming units of (C and D) MW2-WT and (E and F) MW2ΔSTK1 cultures in the presence or absence 50 μM Inh2-B1, 1.51 μM (1 μg/ml) Ceftriaxone, 2.125 μM (1 μg/ml) Cefotaxime, and combination of Inh2-B1 plus Ceftriaxone, and Inh2-B1 plus Cefotaxime. The experiments were carried out as described in the Materials and Method section using Muller-Hinton broth and seeded with 4×10^6 CFUs of S. aureus MW2-Wild type or MW2ΔSTK1 strains per well. Each data points represent Mean±S.D. P values of significance (**=<0.01, ***=<0.001) were determined using the t-test with Welch's corrections. NS—Not significant.
as §2, with “interval. All experiments were performed in three biological replicates and the statistical analysis of the results obtained at each time point was carried out by the non-parametric t-test with Welch's correction using GraphPad Prism 6 software.” for “interval.”

S. aureus MW2ΔSTK1 = test: as above; type: cell-based, Staphylococcus aureus; settings: in the presence of Ceftriaxone (1 μg/ml)
Description: as §3
as §2, with “interval. All experiments were performed in three biological replicates and the statistical analysis of the results obtained at each time point was carried out by the non-parametric t-test with Welch's correction using GraphPad Prism 6 software.” for “interval.”

S. aureus MW2 wild-type [6] = test: Serial passage at suboptimal dose (10 generations), stk1 PCR and DNA sequencing; type: cell-based, Staphylococcus aureus; settings: in the presence of 50 μM Inh2-B1
Description: as §1

[7] = target: S. aureus STKK1 (the soluble kinase domain of STK1, 280 aa) (Staphylococcus aureus, UniProt A0ABF7PGK0); test: In vitro kinase assay: inhibition of autophosphorylation of recombinant STKK1 (γ32P-ATP); type: biochemical; settings: after 5 min pre-incubation
S. aureus STKK1 (the soluble kinase domain of STK1, 280 aa), sequence (A0ABF7PGK0 entry or part of it): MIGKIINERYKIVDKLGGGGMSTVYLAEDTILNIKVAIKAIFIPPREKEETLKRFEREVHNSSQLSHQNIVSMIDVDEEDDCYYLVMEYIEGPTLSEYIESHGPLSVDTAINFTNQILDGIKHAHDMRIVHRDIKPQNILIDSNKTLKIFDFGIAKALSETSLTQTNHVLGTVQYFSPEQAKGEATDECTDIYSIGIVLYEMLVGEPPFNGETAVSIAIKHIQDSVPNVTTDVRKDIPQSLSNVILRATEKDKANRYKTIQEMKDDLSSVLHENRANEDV
Description: For the present study, recombinant His-tag-STKK1 was created along with part of the adjacent juxta-membrane domain (1-280 aa) using the pET14b vector system and specific primers (Table-1 and Table-2) as described previously. The recombinant proteins were expressed in BL21 DE3 (pLysS) and purified using Ni^+2-NTA-affinity chromatography, dialyzed against 10 mM Tris/HCl, pH 7.5, and stored as 10% glycerol stock (500 μg/ml) at −20° C. as described previously. In vitro kinase assays were performed using 2 μg STKK1 in the presence of 1 μCi γ^32P-ATP (specific activity 3000 Ci/mMol, PerkinElmer) at 30° C. for 45 min in a final volume of 30 μl phosphorylation buffer (50 mM Tris/HCl, pH7.5, 1 mM dithiothreitol, 5 mM MgCl2, and/or 5 mM MnCl2). The inhibition of autophosphorylation of STKK1 was carried out using this assay in the presence and absence of (50 μM) individual members of the 32 prescreened small molecule compound library. Phosphorylated proteins were separated by SDS-PAGE and subsequently identified by using Coomassie stain and autoradiography. The individual phosphorylated protein bands were then excised and subjected to radioactive counting using beta-scintillation counter for quantitative analysis. Experiments were repeated at least three times for statistical analysis.

S. pyogenes SP-STK = test: In vitro autophosphorylation / kinase activity of SP-STK; type: biochemical; settings: at 116 μM
S. aureus MW2 = test: Broth dilution susceptibility / growth inhibition assay, Muller Hinton broth; type: cell-based, Staphylococcus aureus; settings: Staphylococcus aureus
Description: as §2, with “interval. All experiments were performed in three biological replicates and the statistical analysis of the results obtained at each time point was carried out by the non-parametric t-test with Welch's correction using GraphPad Prism 6 software.” for “interval.”

S. aureus STK1 / STKK1 = test: Solid-phase ATP affinity chromatography, elution of bound kinase by inhibitor, Western blot; type: binding; settings: eluted with 50 μM inhibitor, anti-STK1 immunoblot
Description: (§4) An overnight culture of S. aureus MW2 strain was centrifuged, and the resulting bacterial pellet was resuspended in lysostaphin digestion buffer (50 mM Tris/HCl buffer, pH 7.5, containing 5 μg/ml DNAse/RNAse and protease inhibitor cocktail) in 1/10 the volume of the original culture volume. The latter was then subjected to lysostaphin treatment (15 U/ml). The lysostaphin digest was sonicated (5 sec pulse at every 10 sec for 10 min at 50% of 130 W, […]), and the debris free whole cell lysate was obtained after centrifugation (10.000×g, 10 min, 4° C.). […] The column was then washed with ten column volumes of binding buffer. Subsequently, the bound proteins were eluted with the 10-column volume of buffer containing 50 μM Inh-2 and Inh2-B1. S. aureus crude lysate, the last fraction of the column washing step, and eluted fractions were resolved by SDS-PAGE and electroblotted onto a PVDF membrane. […] A similar experiment was performed using S. pyogenes whole cell lysates obtained from phage lysin-digested S. pyogenes M1T1 strain using the anti-SP-STK antibody as described previously using to determine the specificity of the inhibitor for S. aureus STK1.

[8] = test system: S. pyogenes SP-STK / SP-STKK; test: as above; type: binding; settings: 50 μM inhibitor
Description: as §4

[9] = test system: cell wall hydrolase genes in S. aureus MW2-WT; test: qRT-PCR mRNA expression of cell wall hydrolase genes; type: cell-based, Staphylococcus aureus; settings: treated MW2-WT vs untreated
Description: The late log phase-grown S. aureus strains MW2 wild-type, and isogenic ΔSTK1 and ΔSTP1 mutant strains, as well as S. aureus MW2 strain treated with 25 μM Inh2-B1 for 4 h, were subjected to lysostaphin treatment to obtain whole cell lysate. Total RNA from the resulting lysate was first extracted by TRIZOL™ (Invitrogen/Thermo) and treated with RNase-free DNaseI. High-quality total RNA (RIN>7.0, and 260/280 and 260/230 ratios >1.8) was then extracted by using RNA purification kit (Norgen, Canada) per manufacturer's instructions and confirmed by an Agilent 2100 Bioanalyzer (Agilent Technologies, Palo Alto, Calif.). The first-strand cDNA from the total RNA was generated, and relative mRNA concentration was quantitated using SYBR Green qRT-PCR master mix and specific primers, using a Light Cycler® 480 real-time PCR machine (Table 2). The results obtained for all samples (three biological replicates each in triplicates) were normalized to corresponding values of 16S rRNA. All results including relative fold-changes in the mRNA expression (mutant vs. wild-type or treated vs. nontreated) for individual genes were analyzed using Exor4 software (Roche Applied Science). Changes in expression ratios by more than 2-fold (up- or down-regulation) were considered as significant.

Row | SMILES | MIC (S. aureus MW2-WT [1]) [µg/mL] | MIC [2] [µg/mL] | MIC [3] [µg/mL] | MBC (S. aureus MW2 wild-type [4]; agent alone, MW2, read-out: Minimum bactericidal concentration (MBC)) | MBC (S. aureus MW2 wild-type [4]; in the presence of 50 μM of Inh2-B1, read-out: MBC for MW2 in the presence of Inh2-B1) | concentration up to which growth of MW2 was seen (S. aureus MW2 wild-type [4]; agent alone, further analysis) [µM] | concentration of wells with ≥1 CFU of wild-type MW2 (S. aureus MW2 wild-type [4]; checkerboard, agent alone) [µM] | fold reduction of MBC (S. aureus MW2 wild-type [4]; in the presence of 50 μM of Inh2-B1 vs antibiotic alone) [fold] | growth pattern of the wild-type, single agent (S. aureus MW2-WT [5]) | growth of MW2ΔSTK1 (S. aureus MW2ΔSTK1) | bactericidal activity against the passaged strain (S. aureus MW2 wild-type [6]) | IC50 [7] [µM] | inhibition of autophosphorylation of S. pyogenes SP-STK (S. pyogenes SP-STK) | IC50 (S. aureus MW2; MW2, read-out: IC50 concentration for MW2) [µM] | MIC (S. aureus MW2; MW2, read-out: minimum inhibitory concentration) [µM] | elution of STK1 bound to ATP-column, whole cell lysate of S. aureus MW2 (S. aureus STK1 / STKK1) | elution of SP-STK bound to ATP-column, S. pyogenes whole cell lysate [8] | expression of cell wall hydrolase-encoding genes [9]
1 | CO/N=C(\C(=O)N[C@@H]1C(=O)N2C(C(=O)O)=C(CSc3nc(=O)c(=O)[nH]n3C)CS[C@H]12)c1csc(N)n1 [Ceftriaxone] | > 100 | 4 (≈ 7.21 µM) | > 100 | 151 µM and 100 µg/mL | 0.59 µM and 0.39 µg/mL | 125 | ≤ 75.00 | 256 | remained unaltered | reduced significantly | remained intact | – | – | – | – | – | – | –
2 | Cc1ccc(NC(=O)c2sc(=S)n3c2[nH]c(=O)c2ccccc23)c(C)c1 [Inh2, N-(2,4-Dimethylphenyl)-5-oxo-1-thioxo-4,5-dihydro[1,3]thiazolo[3,4-a]quinazoline-3-carboxamide] | – | – | – | – | – | – | – | – | – | – | – | 24.5 | did not inhibit autophosphorylation | 12 | 48 | presence of STK1 | did not elute | down-regulation of cell wall hydrolase-encoding genes
